Target: EP4 (Homo sapiens, UniProt P35408)
Experiment: EP4 binding (Ki / IC50)

Chain of EP4 (P35408 whole entry): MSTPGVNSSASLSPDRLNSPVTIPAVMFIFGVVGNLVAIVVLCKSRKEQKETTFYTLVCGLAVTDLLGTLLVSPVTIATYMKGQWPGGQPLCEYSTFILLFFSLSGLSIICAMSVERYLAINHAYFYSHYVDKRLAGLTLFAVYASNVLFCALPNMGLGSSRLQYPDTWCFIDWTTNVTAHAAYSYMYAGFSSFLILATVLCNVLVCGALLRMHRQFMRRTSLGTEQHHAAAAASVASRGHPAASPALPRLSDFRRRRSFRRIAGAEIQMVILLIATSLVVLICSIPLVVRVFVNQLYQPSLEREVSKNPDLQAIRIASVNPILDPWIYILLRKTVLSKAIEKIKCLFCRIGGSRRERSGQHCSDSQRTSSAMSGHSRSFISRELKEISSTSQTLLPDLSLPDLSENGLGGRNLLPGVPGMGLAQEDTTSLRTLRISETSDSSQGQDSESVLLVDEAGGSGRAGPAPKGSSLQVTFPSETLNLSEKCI

IC50: > 10 µM
Compound: CCCCC[C@H](O)c1ccc(N2C(=O)CC[C@@H]2CCCc2ccc(C(=O)O)s2)cc1

Reference: patent publication US20170151261A1, “SKIN WOUND HEALING AND SCAR REDUCTION WITH PROSTAGLANDIN EP4 AGONIST COMBINATIONS” (Allergan, Inc., priority 2012, published 2017)
